Columns and labels:
KB31 cells [1] = experiment: Toxicity of lipids alone or in complex with plasmid for cultured cells, MTT assay; format: cell-based, human; conditions: for Toxicity in the studied range of concentrations efficient for gene delivery: cultured human cells, alone or in combination with DNA
Procedure: Lipids alone, or in the complex with pUC-CMVLUC plasmid at the indicated ratio were added to the cell medium at concentrations of 3.2-100 microgram of lipid per 1 ml of growth medium. After 24 hours exposure to the lipids, the lipid-containing media were removed, and the cells were further incubated in fresh growth medium for 65 hours. At the end of incubations, the cell viability was determined by MTT assay as described in T. Mossman 65 J. Immunol.

KB31 cells [2] = experiment: Delivery of bacterial plasmid pUC-CMVLUC into KB31 cells, luciferase reporter expression (Table 1); format: cell-based, human; conditions: KB cells, pUC-CMVLUC 1 microgram, 7 h; maximum over a range of plasmid/lipid ratios
Procedure: (§1) These materials were used as supplied from the manufacturer. DOTAP-DOPE 1:1 was prepared from the mixture (1:1 by weight) of 1,2 dioleoyloxy-3-trimethylammoniopropane (DOTAP, Avanti PolarLipids, USA) and DOPE by dissolving in distilled water at the concentration 2 mg/ml. DDAB-DOPE 1:2.5 (also known as LipofectACE®, Gibco BRL, USA) was prepared from the mixture of dioctadecyl-dimethylammonium bromide (DDAB, Sigma, USA) and DOPE in the weight ratio 1:2.5 dissolved in distilled water at concentration of 3 mg/ml with brief sonication. All lipid solutions were sterilized by filtration though 0.2 micrometer cellulase acetate filter, unless supplied sterile by manufacturers.
Human epidermoid carcinoma (KB31) cells were grown at 37° C. and 5% CO2 in RPMI 1640 medium supplemented with 10% heat-inactivated fetal calf serum. The cells were plated into a 12-well cell culture plate at 1.5×10^5 cells/well in 1 ml of the growth medium. After a 24 hour acclimation period, 1 microgram of bacterial plasmid (pUC-CMVLUC) with luciferase reporter gene under control of the CMV promoter was added to the cell media, either alone, or in the complex with cationic lipids as indicated below, prepared at a variety of lipid-to-DNA ratios. The complexes were prepared by mixing the lipid, as supplied by the manufacturer, and 1 microgram of the plasmid in 40 microliters of HEPES-NS. […]

NCI-H1048 cells [3] = experiment: Uptake of fluorescein-labeled 24-mer phosphorothioate oligonucleotide, flow cytometry (Table 2); format: cell-based, human; conditions: for Total uptake: mean cell fluorescence / Uptake increase over oligo alone: oligonucleotide 0.5 micro-M
Procedure: Human small cell lung carcinoma cells (NCI-H1048) were grown in RPMI-1640 medium with 10% heat-inactivated fetal calf serum. The cells were exposed for 7 hours in a serum-free medium with a fluorescein-labeled 24-mer phosphorothioate oligonucleotide (0.5 micro-M final concentration), alone or in a complex with lipids obtained as described in Examples 2 and 3. Then the equal volume of serum-supplemented medium was added, and the cells were incubated for another 18 hours. After incubation, cellular accumulation of the oligonucleotide was assayed by flow cytometry using fluorescein label fluorescence.

living cells = experiment: Delivery of functional plasmid DNA and phosphorothioate oligonucleotide into living cells (summary comparison); format: cell-based
Text: We have tested Arg-PE for its ability to deliver functional plasmid DNA and phosphorothioate oligonucleotide (PS ON) into living cells. […] Helper lipids are required for the activity of previously known monocationic lipids.

NCI-A549 cells = experiment: Uptake of fluorescein-labeled 18-mer phosphorothioate oligonucleotide (F-ON), fluorescence microscopy; format: cell-based, human; conditions: oligonucleotide/lipid weight ratio 1:12, 24 hours, 37° C.
Procedure: Human lung adenocarcinoma cells (NCI-A549, American Type Culture Collection) were grown on Permanox® chamber slides in […] medium supplemented with 10% fetal calf serum (R-10) at 37° C. and 5% CO2. 4 micrograms of fluroscein-labeled 18-mer phosphorothioate oligonucleotide (F-ON) in 0.1 ml of HEPES-buffered saline (20 mM hydroxyethylpiperazine-ethane sulfonic acid (HEPES), 144 mM NaCl, pH 7.4) were mixed with Arg-PE formulated as described in Example 2, at the weight ratio of oligonucleotide to the lipid of 1:12. After 30 minutes of incubation, the mixture was made up to 2 mi with R-10 and added to the cells. After 24 hours incubation at 37° C., 5% CO2, the medium was aspirated, the cells washed 4 times with HEPES-buffered balanced salt solution, and immediately examined through a fluorescence microscope. […] Accumulation of the oligonucleotide in NCI-A549 cells, incubated with F-ON under the same conditions, but in the absence of Arg-PE, was undetectable.

NCI-H1048 cells [4] = experiment: Delivery of bacterial plasmid into human extrapulmonary small cell carcinoma NCI-H1048 cells, luciferase expression (Table 4); format: cell-based
Procedure: as §1
The cells were plated into a 12-well cell culture plate at 1.5×10^5 cells/well in 1 ml of the growth medium. After a 24 hour acclimation period, 1 microgram of bacterial plasmid (pUC-CMVLUC) with luciferase reporter gene under control of the CMV promoter was added to the cell media, either alone, or in the complex with cationic lipids as indicated below, prepared at a variety of lipid-to-DNA ratios. The complexes were prepared by mixing the lipid, as supplied by the manufacturer, and 1 microgram of the plasmid in 40 microliters of HEPES-NS. […]

C26 cells = experiment: Delivery of bacterial plasmid into mouse colon carcinoma C26 cells, luciferase expression (Table 3); format: cell-based
Procedure: as §1
Mouse colon carcinoma cells (C26) were grown, incubated with plasmid pCMVLUC in the presence of Arg-PE or commercially available cationic lipids, and assayed for luciferase expression as described in Example 5 above.

[5] = pUC-CMVLUC, maximum over a range of plasmid/lipid ratios

| SMILES | Toxicity in the studied range of concentrations efficient for gene delivery (KB31 cells [1]) | Maximum luciferase activity (KB31 cells [2]) | Enhancement of oligonucleotide uptake compared with commercial cationic lipids (NCI-H1048 cells [3]; NCI-H1048 cells) | Total uptake: mean cell fluorescence (NCI-H1048 cells [3]; oligo/lipid ratio 1:3) [relative units] | Uptake increase over oligo alone (NCI-H1048 cells [3]; oligo/lipid ratio 1:3) [times] | Total uptake: mean cell fluorescence (NCI-H1048 cells [3]; oligo/lipid ratio 1:6) [relative units] | Uptake increase over oligo alone (NCI-H1048 cells [3]; oligo/lipid ratio 1:6) [times] | Efficiency of DNA delivery compared with DOGS (living cells) | Efficiency of cellular delivery of DNA and PS ON versus commercial materials (living cells) | DNA delivery activity without helper lipid (living cells; without the use of a "helper lipid") | Cells showing nuclear fluorescence and cytoplasmic deposits of fluorescent material (NCI-A549 cells) [%] | Microscopic appearance (intracellular distribution of F-ON) (NCI-A549 cells) | Plasmid delivery compared with Transfectam (NCI-H1048 cells [4]) | Maximum luciferase activity (NCI-H1048 cells [4]; [5]) | Toxicity compared with commercial lipids (MTT viability) (KB31 cells [1]; 3.2-100 microgram lipid per ml, 24 hours exposure, lipid as such or DNA-lipid complexes) | Plasmid delivery compared with other cationic lipids (C26 cells) | Maximum luciferase activity (C26 cells; [5]) |
| --- | --- | --- | --- | --- | --- | --- | --- | --- | --- | --- | --- | --- | --- | --- | --- | --- | --- |
| CCCCCCCCCCCCCCCCCCN(CCCCCCCCCCCCCCCCCC)C(=O)CNC(=O)C(CCCNCCCN)NCCCN (stereo not drawn) [DOGS, reference compound] | no detectable toxicity | – | – | – | – | – | – | – | – | – | – | – | – | – | – | – | – |
| CCCCCCCC/C=C\CCCCCCCC(=O)OC[C@H](COP(=O)(O)OCCNC(=O)[C@@H](N)CCCNC(=N)N)OC(=O)CCCCCCC/C=C\CCCCCCCC [Arg-PE, N-Arginyl-dioleoylphosphatidylethanolamine] | no detectable toxicity | 8.25 × 10^6 RLU/mg protein | enhanced the uptake of the oligonucleotide by the cells at least as effectively as the tested commercial cationic lipids | 2.97 | 4.26 | 4.08 | 5.85 | superior to that of a polycationic lipid, DOGS | higher efficiency of the cellular delivery of DNA and PS ON | highly active for the DNA delivery into the cells even without the use of a "helper lipid" | 100 | bright green nuclear fluorescence and substantial cytoplasmic deposits of granular fluorescent material | as effective for the plasmid delivery into NCI-H1048 cells as a polycationic Transfectam® | 3.21 × 10^5 RLU/mg protein | displayed the least toxicity | more effective for the plasmid delivery into C26 cells than other monocationic lipids and as effective as the polycationic lipid Transfectam® | 9.02 × 10^7 RLU/mg protein |

— patent US5980935A, “Cationic lipids and methods of use therefor” (priority 1996, dated 1999)
